Measurements reported in patent publication US20120214760A1, “TREATMENT OF URINARY TRACT INFECTIONS WITH ANTIBACTERIAL AMINOGLYCOSIDE COMPOUNDS” (Achaogen, Inc., priority 2009, published 2012).
Converted amounts (≈) assume the structure as drawn. Read-outs that look alike come from different tables or passages of the source.

Legend:
[1] = test system: P. aeruginosa ATCC 27853 (APAE001); experiment: MIC, CLSI broth microdilution; assay type: cell-based; conditions: Pseudomonas aeruginosa
Procedure: (§1) Minimum inhibitory concentrations (MIC) were determined by reference Clinical and Laboratory Standards Institute (CLSI) broth microdilution methods per M7-A7 [2006]. Quality control ranges utilizing E. coli ATCC 25922, P. aeruginosa ATCC 27853 and S. aureus ATCC 29213, and interpretive criteria for comparator agents were as published in CLSI M100-S17 [2007]. Briefly, serial two-fold dilutions of the test compounds were prepared at 2× concentration in Mueller Hinton Broth. The compound dilutions were mixed in 96-well assay plates in a 1:1 ratio with bacterial inoculum. The inoculum was prepared by suspension of a colony from an agar plate that was prepared the previous day. Bacteria were suspended in sterile saline and added to each assay plate to obtain a final concentration of 5×10^5 CFU/mL. The plates were incubated at 35° C. for 20 hours in ambient air.

[2] = test system: E. coli ATCC 25922 (AECO001); experiment: MIC, CLSI broth microdilution; assay type: cell-based; conditions: Escherichia coli
Procedure: as §1

[3] = ATCC27853, read-out: MIC APAE001, Table 1, APAE001 is ATCC27853
[4] = ATCC25922, read-out: MIC AECO001, Table 1, AECO001 is ATCC25922
[5] = ATCC27853, Table 2, read-out: MIC P. aeruginosa
[6] = ATCC25922, Table 2, read-out: MIC E. coli
[7] = Table 1, AECO001 is ATCC25922, read-out: MIC AECO001

Row | Structure (SMILES) | MIC [1, 3] | MIC [2, 4] | MIC [1, 5] | MIC [2, 6] | MIC [2, 7]
1 | CN[C@@H]1[C@@H](O)[C@@H](O[C@@H]2[C@@H](O)[C@H](O[C@H]3OC(CNCCO)=CC[C@H]3N)[C@@H](N)C[C@H]2NC(=O)[C@H](O)CCN)OC[C@]1(C)O [Example 2, 6′-(2-Hydroxy-ethyl)-1-(4-amino-2(R)-hydroxy-butyryl)-sisomicin] | 1 to 16 µg/mL (≈ 1.69 to 27 µM) | 1 to 16 µg/mL (≈ 1.69 to 27 µM) |  |  | 
2 | CN[C@@H]1[C@@H](O)[C@@H](O[C@@H]2[C@@H](O)[C@H](O[C@H]3OC(CNCC(O)CO)=CC[C@H]3N)[C@@H](N)C[C@H]2NC(=O)[C@H](O)CCN)OC[C@]1(C)O (stereo partly drawn) [Example 3, 6′-(2-Hydroxy-propanol)-1-(4-amino-2(R)-hydroxy-butyryl)-sisomicin] | > 16 µg/mL | 1 to 16 µg/mL (≈ 1.61 to 25.7 µM) |  |  | 
3 | CN[C@@H]1[C@@H](O)[C@@H](O[C@@H]2[C@@H](O)[C@H](O[C@H]3OC(CNCC4CCNCC4)=CC[C@H]3N)[C@@H](N)C[C@H]2NC(=O)[C@H](O)CCN)OC[C@]1(C)O [Example 4, 6′-(Methyl-piperidin-4-yl)-1-(4-amino-2(R)-hydroxy-butyryl)-sisomicin] | 1 to 16 µg/mL (≈ 1.55 to 24.8 µM) | 1 to 16 µg/mL (≈ 1.55 to 24.8 µM) |  |  | 
4 | CN[C@@H]1[C@@H](O)[C@@H](O[C@@H]2[C@@H](O)[C@H](O[C@H]3OC(CNCC4CC4)=CC[C@H]3N)[C@@H](N)C[C@H]2NC(=O)[C@H](O)CCN)OC[C@]1(C)O [Example 5, 6′-(Methyl-cyclopropyl)-1-(4-amino-2(R)-hydroxy-butyryl)-sisomicin] | 1 to 16 µg/mL (≈ 1.66 to 26.5 µM) | < 1 µg/mL |  |  | 
5 | CN[C@@H]1[C@@H](O)[C@@H](O[C@@H]2[C@@H](O)[C@H](O[C@H]3OC(CNCCCN)=CC[C@H]3N)[C@@H](N)C[C@H]2NC(=O)[C@H](O)CCN)OC[C@]1(C)O [Example 6, 6′-(3-Amino-propyl)-1-(4-amino-2(R)-hydroxy-butyryl)-sisomicin] | 1 to 16 µg/mL (≈ 1.65 to 26.4 µM) | 1 to 16 µg/mL (≈ 1.65 to 26.4 µM) |  |  | 
6 | CN[C@@H]1[C@@H](O)[C@@H](O[C@@H]2[C@@H](O)[C@H](O[C@H]3OC(CNCC4CC4)=CC[C@H]3N)[C@@H](N)C[C@H]2NC(=O)[C@H](O)CN)OC[C@]1(C)O [Example 7, 6′-Methyl-cyclopropyl-1-(3-amino-2(R)-hydroxy-propionyl)-sisomicin] | 1 to 16 µg/mL (≈ 1.7 to 27.2 µM) | < 1 µg/mL |  |  | 
7 | CN[C@@H]1[C@@H](O)[C@@H](O[C@@H]2[C@@H](O)[C@H](O[C@H]3OC(CNCC4CCNCC4)=CC[C@H]3N)[C@@H](N)C[C@H]2NC(=O)[C@H](O)CN)OC[C@]1(C)O [Example 8, 6′-Methyl-piperidinyl-1-(3-amino-2(R)-hydroxy-propionyl)-sisomicin] | 1 to 16 µg/mL (≈ 1.58 to 25.3 µM) | < 1 µg/mL |  |  | 
8 | CN[C@@H]1[C@@H](O)[C@@H](O[C@@H]2[C@@H](O)[C@H](O[C@H]3OC(CNCCO)=CC[C@H]3N)[C@@H](N)C[C@H]2NC(=O)[C@H](O)CN)OC[C@]1(C)O [Example 9, 6′-(2-Hydroxy-ethyl)-1-(3-amino-2(R)-hydroxy-propionyl)-sisomicin] | > 16 µg/mL | 1 to 16 µg/mL (≈ 1.73 to 27.6 µM) |  |  | 
9 | CN[C@@H]1[C@@H](O)[C@@H](O[C@@H]2[C@@H](O)[C@H](O[C@H]3OC(CNCC(O)CO)=CC[C@H]3N)[C@@H](N)C[C@H]2NC(=O)[C@H](O)CN)OC[C@]1(C)O (stereo partly drawn) [Example 10, 6′-(2-Hydroxy-propanol)-1-(3-amino-2(R)-hydroxy-propionyl)-sisomicin] | 1 to 16 µg/mL (≈ 1.64 to 26.3 µM) | 1 to 16 µg/mL (≈ 1.64 to 26.3 µM) |  |  | 
10 | CN[C@@H]1[C@@H](O)[C@@H](O[C@@H]2[C@@H](O)[C@H](O[C@H]3OC(CNCCCN)=CC[C@H]3N)[C@@H](N)C[C@H]2NC(=O)[C@H](O)CN)OC[C@]1(C)O [Example 11, 6′-(3-Amino-propyl)-1-(3-amino-2(R)-hydroxy-propionyl)-sisomicin] | 1 to 16 µg/mL (≈ 1.69 to 27 µM) | < 1 µg/mL |  |  | 
11 | CN[C@@H]1[C@@H](O)[C@@H](O[C@@H]2[C@@H](O)[C@H](O[C@H]3OC(CNCC(O)CO)=CC[C@H]3N)[C@@H](N)C[C@H]2NC(=O)[C@@H](O)CN)OC[C@]1(C)O (stereo partly drawn) [Example 14, 6′-(2-Hydroxy-propanol)-1-(3-amino-2(S)-hydroxy-propionyl)-sisomicin] | 1 to 16 µg/mL (≈ 1.64 to 26.3 µM) | 1 to 16 µg/mL (≈ 1.64 to 26.3 µM) |  |  | 
12 | CN[C@@H]1[C@@H](O)[C@@H](O[C@@H]2[C@@H](O)[C@H](O[C@H]3OC(CNCC4CCNCC4)=CC[C@H]3N)[C@@H](N)C[C@H]2NC(=O)[C@@H](O)CN)OC[C@]1(C)O [Example 15, 6′-(Methyl-piperidin-4-yl)-1-(3-amino-2(S)-hydroxy-propionyl)-sisomicin] |  |  | 1 to 16 µg/mL (≈ 1.58 to 25.3 µM) | < 1 µg/mL | < 1 µg/mL
13 | CN[C@@H]1[C@@H](O)[C@@H](O[C@@H]2[C@@H](O)[C@H](O[C@H]3OC(CNCC(O)CO)=CC[C@H]3N)[C@@H](N)C[C@H]2NC(=O)[C@@H](O)CCN)OC[C@]1(C)O (stereo partly drawn) [Example 19, 6′-(2-Hydroxy-propanol)-1-(4-amino-2(S)-hydroxy-butyryl)-sisomicin] | 1 to 16 µg/mL (≈ 1.61 to 25.7 µM) | < 1 µg/mL |  |  | 
14 | CN[C@@H]1[C@@H](O)[C@@H](O[C@@H]2[C@@H](O)[C@H](O[C@H]3OC(CNC(=O)C(O)CN)=CC[C@H]3N)[C@@H](N)C[C@H]2NC(=O)[C@@H](O)CN)OC[C@]1(C)O (stereo partly drawn) [Example 20, 6′-(3-Amino-2-hydroxy-propionyl)-1-(3-amino-2(S)-hydroxy-propionyl)-sisomicin] | > 16 µg/mL | > 16 µg/mL |  |  | 
15 | CN[C@@H]1[C@@H](O)[C@@H](O[C@@H]2[C@@H](O)[C@H](O[C@H]3OC(CNCC(O)C(N)=O)=CC[C@H]3N)[C@@H](N)C[C@H]2NC(=O)[C@@H](O)CN)OC[C@]1(C)O (stereo partly drawn) [Example 21, 6′-(2-Hydroxy-3-propionamide)-1-(3-amino-2(S)-hydroxy-propionyl)-sisomicin] | 1 to 16 µg/mL (≈ 1.61 to 25.7 µM) | 1 to 16 µg/mL (≈ 1.61 to 25.7 µM) |  |  | 
16 | CN[C@@H]1[C@@H](O)[C@@H](O[C@@H]2[C@@H](O)[C@H](O[C@H]3OC(CNCC(O)CN)=CC[C@H]3N)[C@@H](N)C[C@H]2NC(=O)[C@@H](O)CN)OC[C@]1(C)O (stereo partly drawn) [Example 22, 6′-(3-Amino-2-hydroxy-propyl)-1-(3-amino-2(S)-hydroxy-propionyl)-sisomicin] |  |  | 1 to 16 µg/mL (≈ 1.65 to 26.3 µM) | 1 to 16 µg/mL (≈ 1.65 to 26.3 µM) | 1 to 16 µg/mL (≈ 1.65 to 26.3 µM)
17 | CN[C@@H]1[C@@H](O)[C@@H](O[C@@H]2[C@@H](O)[C@H](O[C@H]3OC(CNCC(O)CO)=CC[C@H]3N)[C@@H](N)C[C@H]2NC(=O)CO)OC[C@]1(C)O (stereo partly drawn) [Example 23, 6′-(2-Hydroxy-propanol)-1-(2-hydroxy-acetyl)-sisomicin] | > 16 µg/mL | > 16 µg/mL |  |  | 
18 | CN[C@@H]1[C@@H](O)[C@@H](O[C@@H]2[C@@H](O)[C@H](O[C@H]3OC(CNCCCN)=CC[C@H]3N)[C@@H](N)C[C@H]2NC(=O)CO)OC[C@]1(C)O [Example 24, 6′-(3-Amino-propyl)-1-(2-hydroxy-acetyl)-sisomicin] | 1 to 16 µg/mL (≈ 1.78 to 28.4 µM) | 1 to 16 µg/mL (≈ 1.78 to 28.4 µM) |  |  | 
19 | CN[C@@H]1[C@@H](O)[C@@H](O[C@@H]2[C@@H](O)[C@H](O[C@H]3OC(CNCCO)=CC[C@H]3N)[C@@H](N)C[C@H]2NC(=O)CO)OC[C@]1(C)O [Example 25, 6′-(2-Hydroxy-ethyl)-1-(2-hydroxy-acetyl)-sisomicin] | 1 to 16 µg/mL (≈ 1.82 to 29.1 µM) | 1 to 16 µg/mL (≈ 1.82 to 29.1 µM) |  |  | 
20 | CN[C@@H]1[C@@H](O)[C@@H](O[C@@H]2[C@@H](O)[C@H](O[C@H]3OC(CNCCCN)=CC[C@H]3N)[C@@H](N)C[C@H]2NS(=O)(=O)CCN)OC[C@]1(C)O [Example 26, 6′-(3-Amino-propyl)-1-(2-amino-ethylsulfonamide)-sisomicin] | 1 to 16 µg/mL (≈ 1.63 to 26.2 µM) | 1 to 16 µg/mL (≈ 1.63 to 26.2 µM) |  |  | 
21 | CN[C@@H]1[C@@H](O)[C@@H](O[C@@H]2[C@@H](O)[C@H](O[C@H]3OC(CNCC(O)CO)=CC[C@H]3N)[C@@H](N)C[C@H]2NS(=O)(=O)CCN)OC[C@]1(C)O (stereo partly drawn) [Example 27, 6′-(2-Hydroxy-propanol)-1-(2-amino-ethylsulfonamide)-sisomicin] | > 16 µg/mL | 1 to 16 µg/mL (≈ 1.59 to 25.4 µM) |  |  | 
22 | CN[C@@H]1[C@@H](O)[C@@H](O[C@@H]2[C@@H](O)[C@H](O[C@H]3OC(CNC[C@H](O)CO)=CC[C@H]3N)[C@@H](N)C[C@H]2NC(=O)[C@@H](O)CCN)OC[C@]1(C)O [Example 28, 6′-(2(S)-Hydroxy-propanol)-1-(4-amino-2(S)-hydroxy-butyryl)-sisomicin] | 1 to 16 µg/mL (≈ 1.61 to 25.7 µM) | 1 to 16 µg/mL (≈ 1.61 to 25.7 µM) |  |  | 
23 | CN[C@@H]1[C@@H](O)[C@@H](O[C@@H]2[C@@H](O)[C@H](O[C@H]3OC(CNCCO)=CC[C@H]3N)[C@@H](N)C[C@H]2NS(=O)(=O)CCN)OC[C@]1(C)O [Example 29, 6′-(2-Hydroxy-ethyl)-1-(2-amino-ethylsulfonamide)-sisomicin] | > 16 µg/mL | 1 to 16 µg/mL (≈ 1.67 to 26.7 µM) |  |  | 
24 | CN[C@@H]1[C@@H](O)[C@@H](O[C@@H]2[C@@H](O)[C@H](O[C@H]3OC(CNCC(N)CO)=CC[C@H]3N)[C@@H](N)C[C@H]2NC(=O)[C@@H](O)CCN)OC[C@]1(C)O (stereo partly drawn) [Example 30, 6′-(2-Amino-propanol)-1-(4-amino-2(S)-hydroxy-butyryl)-sisomicin] | 1 to 16 µg/mL (≈ 1.61 to 25.7 µM) | < 1 µg/mL |  |  | 
25 | CN[C@@H]1[C@@H](O)[C@@H](O[C@@H]2[C@@H](O)[C@H](O[C@H]3OC(CNCC4(O)CCNCC4)=CC[C@H]3N)[C@@H](N)C[C@H]2NC(=O)[C@@H](O)CCN)OC[C@]1(C)O [Example 31] | 1 to 16 µg/mL (≈ 1.51 to 24.2 µM) | 1 to 16 µg/mL (≈ 1.51 to 24.2 µM) |  |  | 
26 | CN[C@@H]1[C@@H](O)[C@@H](O[C@@H]2[C@@H](O)[C@H](O[C@H]3OC(CNCC(O)CCCN)=CC[C@H]3N)[C@@H](N)C[C@H]2NC(=O)[C@@H](O)CCN)OC[C@]1(C)O (stereo partly drawn) [Example 32, 6′-(2-Hydroxy-5-amino-pentyl)-1-(4-amino-2(S)-hydroxy-butyryl)-sisomicin] | 1 to 16 µg/mL (≈ 1.54 to 24.6 µM) | < 1 µg/mL |  |  | 
